Each block holds one compound with its values, some of them ahead of it.
Legend:
[1] = target: T1, Peroxisome proliferator-activated receptor gamma (Homo sapiens) (UniProt P37231); experiment: Activity at PPARgamma (unknown origin) transfected in 293T cells assessed as transactivation activity after 24 hrs by PPRE-TK- luciferase reporter gene assay relative to rosiglitazone; format: cell-based
T1 sequence (whole entry): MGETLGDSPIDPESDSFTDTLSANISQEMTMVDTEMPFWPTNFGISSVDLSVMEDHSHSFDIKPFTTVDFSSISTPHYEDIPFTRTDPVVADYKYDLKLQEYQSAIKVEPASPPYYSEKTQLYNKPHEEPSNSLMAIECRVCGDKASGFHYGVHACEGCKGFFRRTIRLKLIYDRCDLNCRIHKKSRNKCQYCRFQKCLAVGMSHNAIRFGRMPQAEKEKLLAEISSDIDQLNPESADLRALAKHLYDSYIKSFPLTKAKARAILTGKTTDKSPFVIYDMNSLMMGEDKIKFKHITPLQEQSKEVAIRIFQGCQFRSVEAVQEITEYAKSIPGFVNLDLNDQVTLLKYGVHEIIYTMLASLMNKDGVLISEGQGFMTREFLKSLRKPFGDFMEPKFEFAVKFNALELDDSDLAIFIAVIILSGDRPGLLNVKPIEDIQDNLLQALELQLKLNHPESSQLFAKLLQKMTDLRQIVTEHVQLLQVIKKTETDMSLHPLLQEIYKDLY

[2] = target: T2, Peroxisome proliferator-activated receptor gamma (Homo sapiens, UniProt P37231); experiment: Activity at PPARgamma (unknown origin) assessed as transactivation activity by reporter gene assay
T2 sequence (P37231 whole entry): T1 sequence (whole entry)

[3] = target: T1, Peroxisome proliferator-activated receptor gamma (Homo sapiens); experiment: Activity at PPARgamma (unknown origin) assessed as transactivation activity by reporter gene assay relative to rosiglitazone
[4] = target: T2, Peroxisome proliferator-activated receptor gamma; experiment: Activity at full length human PPARgamma transfected in CV1 cells assessed as transactivation activity after 24 hrs by PPRE-TK- luciferase reporter gene assay; format: cell-based, CV-1
[5] = target: T1, Peroxisome proliferator-activated receptor gamma (Homo sapiens); experiment: Activity at full length human PPARgamma transfected in CV1 cells assessed as transactivation activity after 24 hrs by PPRE-TK- luciferase reporter gene assay relative to rosiglitazone; format: cell-based; conditions: CV-1
[6] = target: T2, Peroxisome proliferator-activated receptor gamma; experiment: Activity at human PPARgamma transfected in HEK293 cells assessed as transactivation activity after 24 hrs by Dual-luciferase reporter gene assay relative to rosiglitazone; format: cell-based
[7] = target: T2, Peroxisome proliferator-activated receptor gamma; experiment: Activity at human PPARgamma transfected in HEK293 cells assessed as transactivation activity by luciferase reporter gene assay; format: cell-based
[8] = target: T1, Peroxisome proliferator-activated receptor gamma (Homo sapiens); experiment: Activity at human full length PPARgamma LBD transfected in COS7 cells assessed as transactivation activity by reporter gene assay relative to rosiglitazone; format: cell-based; conditions: COS-7
[9] = target: T1, Peroxisome proliferator-activated receptor gamma (Homo sapiens); experiment: Activity at human full length PPARgamma transfected in COS7 cells assessed as transactivation activity by reporter gene assay relative to rosiglitazone; format: cell-based; conditions: COS-7

- %max [1]: 30%
Compound: C[C@@H]1O[C@@H](O[C@@H]2[C@H](O[C@H]3C[C@]4(C)[C@H](C[C@@H](O)[C@@H]5[C@@](C)([C@]6(C)CC[C@H](C(C)(C)O)O6)CC[C@]54C)[C@@]4(C)CC[C@H](O)C(C)(C)[C@H]34)O[C@H](CO)[C@@H](O)[C@@H]2O)[C@H](O)[C@H](O)[C@H]1O

- EC50 ([2]; read-out: EC50): 183 nM
- %max [3]: 60%
Compound: CC[C@H](OC(=O)N(Cc1ccccc1)C(=O)Nc1cc(OC)cc(OC)c1)c1cc(-c2ccc(OC(C)(C)C(=O)O)cc2)no1

- EC50 [4]: 4500 nM
- %max [5]: 30%
Compound: CCCc1nc2c(C)cc(-c3nc4ccccc4n3C)cc2n1Cc1ccc(-c2ccccc2C(=O)O)cc1

- EC50 [6]: Not Active
Compound: Cc1c(C)n(Cc2ccc(-c3ccccc3C(=O)O)cc2)c2ccc(C(=O)NCc3cccnc3)cc12

- EC50 ([2]; read-out: EC50): 0.38 nM
- %max [3]: 70%
Compound: CC[C@@H](OC(=O)N(Cc1ccccc1)C(=O)Nc1cc(OC)cc(OC)c1)c1cc(-c2ccc(OC(C)(C)C(=O)O)cc2)no1

- EC50 [7]: 155 nM
Compound: Cc1oc(-c2ccccc2)nc1CCOc1ccc(C[C@@H](NC(=O)/C=C/c2ccco2)C(=O)O)cc1

Compound: C[C@H](CCC(=O)O)C[C@H](C)C[C@H](C)C(=O)/C=C(\O)[C@H](C)C[C@H](C)C/C=C/[C@@H](C)[C@@H](O)[C@@H](C)[C@@H](O)C[C@@H]1CC[C@@](C)([C@H]2CC[C@@](C)([C@@H](C)O)O2)O1
- %max [8]: 35%

- %max [9]: 60%
Compound: CCCCCCCCCC(=O)O

- EC50 [2]: Not Active
Compound: Cc1c(C)n(Cc2ccc(-c3ccccc3C(=O)O)cc2)c2ccc(C(=O)N[C@@H](C)c3ccc([N+](=O)[O-])cc3)cc12

— ChEMBL document CHEMBL3585309, “Peroxisome Proliferator-Activated Receptor γ (PPARγ) and Ligand Choreography: Newcomers Take the Stage” (J Med Chem, 2015)
